Results on one compound are retold here after paper PMC8449129, “Single tracer-based protocol for broad-spectrum kinase profiling in live cells with NanoBRET” (STAR Protocols, 2021).

Structures are written as SMILES.

Common to all, as to test: cell-based
Common to all, as to design: NanoBRET live-cell target engagement; % occupancy from displacement of tracer K10 on NanoLuc-kinase fusions, mean n=3
Common to all, as to settings: HEK293, read-out: % inhibition
Background: BRET reads energy transfer from a luciferase to a nearby fluorophore.

For one assay, the target named is BRSK1 (Homo sapiens, UniProt Q8TDC3). In a few lines:
(§1)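 Live-cell NanoBRET target engagement: cells expressing kinase–NanoLuc fusion with tracer treated with compound 2 h at 37 °C, 5% CO2. BRET read from donor (450 nm) and acceptor (610/630 nm) emission with 20 μM extracellular NanoLuc inhibitor; % occupancy calculated relative to tracer+DMSO and zero-BRET controls.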

The target of the next assay is CAMK2D (Homo sapiens, UniProt Q13557). In a few lines:
as §1

The target in the next assay is CDK17 (Homo sapiens, UniProt Q00537). In a few lines:
as §1

For another assay, the target named is CDK3 (Homo sapiens, UniProt Q00526). In a few lines:
as §1

The next assay deals with FER (Homo sapiens, UniProt P16591). In a few lines: as §1
Another assay addresses GAK (Homo sapiens, UniProt O14976). In a few lines:
as §1

The target of the next assay is IRAK3 (Homo sapiens, UniProt Q9Y616). In a few lines: as §1
In the next assay the target is JAK3 (Homo sapiens, UniProt P52333). In a few lines:
as §1

The target of another assay is MYLK4 (Homo sapiens, UniProt Q86YV6). In a few lines:
as §1

A further assay deals with NEK11 (Homo sapiens, UniProt Q8NG66). In a few lines: as §1
A further assay addresses NEK2 (Homo sapiens, UniProt P51955). In a few lines:
as §1

The next assay deals with PKMYT1 (Homo sapiens, UniProt Q99640). In a few lines: as §1
Another assay concerns the target RPS6KA6 (Homo sapiens, UniProt Q9UK32). In a few lines: as §1
A further assay has as its target STK10 (Homo sapiens, UniProt O94804). In a few lines:
as §1

A further assay deals with TBK1 (Homo sapiens, UniProt Q9UHD2). In a few lines:
as §1

A further assay addresses TXK (Homo sapiens, UniProt P42681). In a few lines: as §1
For another assay, the target named is ULK3 (Homo sapiens, UniProt Q6PHR2). In a few lines:
as §1

For the next assay, the target named is WEE1 (Homo sapiens, UniProt P30291). In a few lines: as §1
Chain of WEE1 (P30291 whole entry): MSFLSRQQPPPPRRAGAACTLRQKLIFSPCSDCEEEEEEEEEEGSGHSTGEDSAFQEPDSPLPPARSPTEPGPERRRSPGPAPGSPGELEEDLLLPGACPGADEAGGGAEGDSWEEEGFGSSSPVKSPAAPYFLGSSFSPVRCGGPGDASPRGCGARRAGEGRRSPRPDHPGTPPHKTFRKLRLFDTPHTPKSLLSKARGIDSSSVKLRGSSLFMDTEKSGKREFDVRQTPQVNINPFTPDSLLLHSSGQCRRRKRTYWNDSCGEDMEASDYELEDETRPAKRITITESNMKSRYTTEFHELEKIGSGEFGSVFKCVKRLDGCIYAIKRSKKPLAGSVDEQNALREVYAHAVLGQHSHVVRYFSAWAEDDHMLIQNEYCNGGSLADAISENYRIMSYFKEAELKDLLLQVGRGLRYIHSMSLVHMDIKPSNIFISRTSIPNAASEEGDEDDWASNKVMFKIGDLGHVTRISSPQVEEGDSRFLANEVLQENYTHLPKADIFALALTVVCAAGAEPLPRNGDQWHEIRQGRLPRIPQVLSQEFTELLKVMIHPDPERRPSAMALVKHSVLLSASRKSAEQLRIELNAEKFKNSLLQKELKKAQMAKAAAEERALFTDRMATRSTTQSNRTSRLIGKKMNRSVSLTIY

Chain of BRSK1 (Q8TDC3 whole entry, the tested form may be a part): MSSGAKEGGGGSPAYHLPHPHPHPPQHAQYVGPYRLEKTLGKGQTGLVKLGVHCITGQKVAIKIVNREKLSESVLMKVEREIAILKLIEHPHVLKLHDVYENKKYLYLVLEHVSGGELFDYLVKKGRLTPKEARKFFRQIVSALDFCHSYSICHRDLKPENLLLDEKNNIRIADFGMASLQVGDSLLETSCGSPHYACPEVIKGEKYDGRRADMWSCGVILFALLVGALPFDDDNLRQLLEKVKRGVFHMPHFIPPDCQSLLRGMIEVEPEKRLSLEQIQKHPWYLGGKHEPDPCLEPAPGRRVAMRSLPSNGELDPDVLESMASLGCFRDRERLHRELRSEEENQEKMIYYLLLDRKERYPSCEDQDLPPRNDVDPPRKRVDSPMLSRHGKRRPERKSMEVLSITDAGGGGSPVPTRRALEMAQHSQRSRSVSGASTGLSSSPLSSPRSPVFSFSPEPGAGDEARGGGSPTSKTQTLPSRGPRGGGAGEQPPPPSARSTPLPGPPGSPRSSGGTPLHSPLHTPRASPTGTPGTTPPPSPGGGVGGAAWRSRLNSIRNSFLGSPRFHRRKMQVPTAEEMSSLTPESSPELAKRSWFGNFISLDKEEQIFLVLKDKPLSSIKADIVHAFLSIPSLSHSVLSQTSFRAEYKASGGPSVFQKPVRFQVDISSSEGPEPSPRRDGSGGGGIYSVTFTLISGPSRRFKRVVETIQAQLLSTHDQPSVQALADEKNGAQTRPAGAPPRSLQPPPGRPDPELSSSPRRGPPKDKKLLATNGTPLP
Chain of CDK17 (Q00537 whole entry): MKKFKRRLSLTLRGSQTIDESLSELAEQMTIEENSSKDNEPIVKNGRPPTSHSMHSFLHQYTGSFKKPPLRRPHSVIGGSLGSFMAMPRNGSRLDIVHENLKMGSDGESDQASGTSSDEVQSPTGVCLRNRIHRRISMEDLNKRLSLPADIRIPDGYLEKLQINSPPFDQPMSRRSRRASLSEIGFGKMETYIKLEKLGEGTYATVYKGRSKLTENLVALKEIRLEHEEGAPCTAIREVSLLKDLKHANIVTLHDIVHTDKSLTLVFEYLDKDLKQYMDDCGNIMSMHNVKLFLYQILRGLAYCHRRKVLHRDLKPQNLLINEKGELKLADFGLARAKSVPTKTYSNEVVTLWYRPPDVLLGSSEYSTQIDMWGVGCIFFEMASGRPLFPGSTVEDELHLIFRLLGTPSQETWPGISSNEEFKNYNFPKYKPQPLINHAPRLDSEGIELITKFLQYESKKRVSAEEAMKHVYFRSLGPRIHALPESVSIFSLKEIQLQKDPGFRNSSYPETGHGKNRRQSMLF
Chain of FER (P16591 whole entry): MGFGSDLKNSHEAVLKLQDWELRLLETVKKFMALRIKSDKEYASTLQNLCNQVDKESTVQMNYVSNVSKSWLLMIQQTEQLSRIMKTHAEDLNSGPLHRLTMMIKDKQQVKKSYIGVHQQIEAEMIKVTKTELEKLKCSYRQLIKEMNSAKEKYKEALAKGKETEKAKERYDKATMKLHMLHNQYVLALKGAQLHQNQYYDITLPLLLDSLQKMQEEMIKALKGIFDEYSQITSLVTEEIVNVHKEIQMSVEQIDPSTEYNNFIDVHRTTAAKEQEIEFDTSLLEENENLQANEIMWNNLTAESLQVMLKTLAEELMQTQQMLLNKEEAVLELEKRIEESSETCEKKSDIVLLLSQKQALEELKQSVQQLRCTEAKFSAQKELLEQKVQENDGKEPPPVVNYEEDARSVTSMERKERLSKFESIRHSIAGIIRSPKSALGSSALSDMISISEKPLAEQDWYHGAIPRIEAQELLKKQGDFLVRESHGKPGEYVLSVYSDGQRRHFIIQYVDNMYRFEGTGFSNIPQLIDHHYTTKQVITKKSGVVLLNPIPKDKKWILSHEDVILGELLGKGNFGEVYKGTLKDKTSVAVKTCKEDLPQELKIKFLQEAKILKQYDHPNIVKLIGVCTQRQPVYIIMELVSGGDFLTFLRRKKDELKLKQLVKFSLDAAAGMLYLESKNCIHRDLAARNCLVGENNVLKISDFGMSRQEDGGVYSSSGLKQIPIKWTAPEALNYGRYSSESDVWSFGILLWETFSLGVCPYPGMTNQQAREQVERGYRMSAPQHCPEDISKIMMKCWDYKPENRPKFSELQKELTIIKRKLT
Chain of TXK (P42681 whole entry): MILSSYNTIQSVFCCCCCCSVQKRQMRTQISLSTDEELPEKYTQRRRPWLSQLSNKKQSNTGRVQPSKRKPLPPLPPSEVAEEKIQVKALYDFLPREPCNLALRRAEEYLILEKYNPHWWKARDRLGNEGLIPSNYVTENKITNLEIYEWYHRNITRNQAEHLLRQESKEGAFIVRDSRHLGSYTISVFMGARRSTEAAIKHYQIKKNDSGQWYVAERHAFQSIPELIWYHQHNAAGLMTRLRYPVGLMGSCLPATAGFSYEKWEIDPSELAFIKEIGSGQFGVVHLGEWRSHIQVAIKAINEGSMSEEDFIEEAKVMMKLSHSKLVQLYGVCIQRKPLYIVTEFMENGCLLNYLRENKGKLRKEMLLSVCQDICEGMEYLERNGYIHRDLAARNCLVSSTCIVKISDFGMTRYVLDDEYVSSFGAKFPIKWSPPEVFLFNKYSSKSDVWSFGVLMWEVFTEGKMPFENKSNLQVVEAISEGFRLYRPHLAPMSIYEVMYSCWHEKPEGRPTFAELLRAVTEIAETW
Chain of CAMK2D (Q13557 whole entry): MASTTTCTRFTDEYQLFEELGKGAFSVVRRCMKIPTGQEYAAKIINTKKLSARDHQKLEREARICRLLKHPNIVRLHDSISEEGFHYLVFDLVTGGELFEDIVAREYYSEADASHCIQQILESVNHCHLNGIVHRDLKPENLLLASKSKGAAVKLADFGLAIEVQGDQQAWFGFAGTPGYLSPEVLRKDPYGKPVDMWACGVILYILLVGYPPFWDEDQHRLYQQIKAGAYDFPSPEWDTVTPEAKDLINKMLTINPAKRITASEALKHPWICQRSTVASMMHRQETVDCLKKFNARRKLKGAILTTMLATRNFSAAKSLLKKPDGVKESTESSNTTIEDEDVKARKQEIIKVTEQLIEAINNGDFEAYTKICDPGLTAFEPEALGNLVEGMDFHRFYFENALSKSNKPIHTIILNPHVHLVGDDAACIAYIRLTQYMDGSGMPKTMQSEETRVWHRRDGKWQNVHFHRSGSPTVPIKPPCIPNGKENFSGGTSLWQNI
Chain of MYLK4 (Q86YV6 whole entry): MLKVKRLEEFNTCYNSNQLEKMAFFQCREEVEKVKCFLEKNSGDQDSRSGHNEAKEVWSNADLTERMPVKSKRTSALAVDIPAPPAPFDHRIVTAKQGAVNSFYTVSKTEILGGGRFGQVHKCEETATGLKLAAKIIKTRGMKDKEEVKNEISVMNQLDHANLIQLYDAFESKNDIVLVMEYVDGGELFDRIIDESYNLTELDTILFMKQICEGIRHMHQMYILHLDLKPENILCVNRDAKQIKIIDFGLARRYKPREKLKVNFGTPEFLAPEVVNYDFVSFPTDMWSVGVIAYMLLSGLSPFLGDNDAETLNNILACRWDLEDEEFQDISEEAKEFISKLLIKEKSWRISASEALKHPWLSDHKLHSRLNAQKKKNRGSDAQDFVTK
Chain of RPS6KA6 (Q9UK32 whole entry): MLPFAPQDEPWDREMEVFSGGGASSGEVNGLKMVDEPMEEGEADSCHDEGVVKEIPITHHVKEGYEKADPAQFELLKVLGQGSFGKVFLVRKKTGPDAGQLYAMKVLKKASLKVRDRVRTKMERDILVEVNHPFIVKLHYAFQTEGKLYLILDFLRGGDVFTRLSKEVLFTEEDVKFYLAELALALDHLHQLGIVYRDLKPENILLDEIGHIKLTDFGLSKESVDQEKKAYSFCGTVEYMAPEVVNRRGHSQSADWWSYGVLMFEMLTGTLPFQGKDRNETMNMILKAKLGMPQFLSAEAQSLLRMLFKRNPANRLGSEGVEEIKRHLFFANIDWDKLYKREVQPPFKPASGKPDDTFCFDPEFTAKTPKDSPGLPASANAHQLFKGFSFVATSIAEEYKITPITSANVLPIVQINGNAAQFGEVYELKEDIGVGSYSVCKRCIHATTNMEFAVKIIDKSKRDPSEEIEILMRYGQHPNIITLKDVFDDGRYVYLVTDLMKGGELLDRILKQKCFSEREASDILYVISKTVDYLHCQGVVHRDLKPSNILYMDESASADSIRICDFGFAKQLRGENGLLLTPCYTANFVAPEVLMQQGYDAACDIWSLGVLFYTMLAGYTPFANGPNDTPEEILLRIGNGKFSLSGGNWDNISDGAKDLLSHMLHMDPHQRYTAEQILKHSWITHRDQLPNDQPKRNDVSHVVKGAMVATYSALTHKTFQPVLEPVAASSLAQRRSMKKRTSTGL

For `C[C@@H](Oc1cc(-c2cnn(C3CCNCC3)c2)cnc1N)c1c(Cl)ccc(F)c1Cl` [crizotinib], the inhibition at 1 µM is -1% at BRSK1; 3% on CAMK2D; 3% on CDK17; 6% on CDK3; 16% on FER; -14% at GAK. For the same compound, the inhibition at 1 µM at IRAK3 was 42%; at JAK3 it was 2%; at MYLK4, -8%; on NEK11, 7%; on NEK2 it was 6%; at PKMYT1, 6%. The inhibition at 1 µM at RPS6KA6 is -10%; on STK10, 35%; at TBK1, -7%; at TXK it was 18%; at ULK3, 2%; on WEE1 it was -9%.

The term inhibition denotes the relative decrease from the control value, in per cent.
